According to ChEMBL document CHEMBL5137134, “Developing the Natural Prenylflavone Artocarpin from Artocarpus hirsutus as a Potential Lead Targeting Pathogenic, Multidrug-Resistant Staphylococcus aureus, Persisters and Biofilms with No Detectable Resistance” (J Nat Prod, 2022):
Values after ≈ are worked out from the molar mass of the structure shown. Active and inactive are the calls of the source. The rule behind the calls is not given here.

Legend:
Staphylococcus aureus [1] = assay: Post antibiotic effect against Staphylococcus aureus ATCC 29213 at 10 times MIC incubated for 1 hr followed by replacement with drug free medium and measured every 1 hr (reference value: 0 hr); type: functional
Staphylococcus aureus [2] = assay: Synergistic antibacterial activity against Staphylococcus aureus ATCC 29213 assessed as fractional inhibitory concentration incubated for 24 hrs in presence of levofloxacin by checkerboard method; type: functional
Staphylococcus aureus [3] = assay: Synergistic antibacterial activity against Staphylococcus aureus ATCC 29213 assessed as fractional inhibitory concentration incubated for 24 hrs in presence of gentamycin by checkerboard method; type: functional
Staphylococcus aureus [4] = assay: Antibacterial activity against methicillin/tetracycline resistant Staphylococcus aureus NRS 100 assessed as reduction in bacterial growth incubated for 16 to 18 hrs by broth microdilution method; type: functional; conditions: time 16-18 hrs
Enterococcus [5] = assay: Antibacterial activity against vancomycin/methicillin/levoflaxacin/minocycline resistant Enterococcus NR 31912 assessed as reduction in bacterial growth incubated for 16 to 18 hrs by broth microdilution method; type: functional; conditions: time 16-18 hrs
Staphylococcus aureus [6] = assay: Bactericidal activity against Staphylococcus aureus ATCC 29213 assessed as inhibition of bacterial regrowth at 10 time MIC after 24 hrs by time kill assay; type: functional, organism-based
Staphylococcus aureus [7] = assay: Antibacterial activity against methicillin/levoflaxacin/vancomycin/meropenem/gentamycin/spectinomycin/teicoplanin resistant Staphylococcus aureus VRS 1 assessed as reduction in bacterial growth incubated for 16 to 18 hrs by broth microdilution method; type: functional; conditions: time 16-18 hrs
Staphylococcus aureus [8] = assay: Antibacterial activity against methicillin/levoflaxacin/meropenem resistant Staphylococcus aureus NRS 193 assessed as reduction in bacterial growth incubated for 16 to 18 hrs by broth microdilution method; type: functional; conditions: time 16-18 hrs
Acinetobacter baumannii = assay: Antibacterial activity against Acinetobacter baumannii BAA 1605 assessed as reduction in bacterial growth incubated for 16 to 18 hrs by broth microdilution method; type: functional; conditions: time 16-18 hrs
Escherichia coli = assay: Antibacterial activity against Escherichia coli ATCC 25922 assessed as reduction in bacterial growth incubated for 16 to 18 hrs in presence of PMBN by broth microdilution method; type: functional; conditions: time 16-18 hrs
Staphylococcus aureus [9] = assay: Synergistic antibacterial activity against Staphylococcus aureus ATCC 29213 assessed as reduction in bacterial growth incubated for 24 hrs in presence of linezolid by checkerboard method; type: functional
Staphylococcus aureus [10] = assay: Bactericidal activity against Staphylococcus aureus ATCC 29213 assessed as reduction in log10 CFU at 10 time MIC after 1 hr by time kill assay; type: functional
Staphylococcus aureus [11] = assay: Synergistic antibacterial activity against Staphylococcus aureus ATCC 29213 assessed as fractional inhibitory concentration incubated for 24 hrs in presence of rifampicin by checkerboard method; type: functional
Staphylococcus aureus [12] = assay: Synergistic antibacterial activity against Staphylococcus aureus ATCC 29213 assessed as fractional inhibitory concentration incubated for 24 hrs in presence of meropenem by checkerboard method; type: functional
Staphylococcus aureus [13] = assay: Antibacterial activity against methicillin/levoflaxacin/meropenem resistant Staphylococcus aureus NRS 191 assessed as reduction in bacterial growth incubated for 16 to 18 hrs by broth microdilution method; type: functional; conditions: time 16-18 hrs
Enterococcus [14] = assay: Antibacterial activity against vancomycin/methicillin/levoflaxacin/minocycline resistant Enterococcus NR 31903 assessed as reduction in bacterial growth incubated for 16 to 18 hrs by broth microdilution method; type: functional; conditions: time 16-18 hrs
Staphylococcus aureus [15] = assay: Synergistic antibacterial activity against Staphylococcus aureus ATCC 29213 at 1 time MIC after 24 hrs in presence of gentamicin by time kill assay; type: functional
Staphylococcus aureus [16] = assay: Antibacterial activity against methicillin/levoflaxacin/vancomycin/meropenem/gentamycin/spectinomycin/teicoplanin resistant Staphylococcus aureus VRS 12 assessed as reduction in bacterial growth incubated for 16 to 18 hrs by broth microdilution method; type: functional; conditions: time 16-18 hrs
Staphylococcus aureus [17] = assay: Antibiofilm activity against Staphylococcus aureus ATCC 29213 assessed as reduction in preformed bacterial biofilm mass at 1 time MIC incubated for 24 hrs by crystal violet staining based microtiter plate reader assay; type: functional; set-up: scale not given: the % may be the effect or the level left
Staphylococcus aureus [18] = assay: Antibacterial activity against methicillin/levoflaxacin/meropenem resistant Staphylococcus aureus NRS 186 assessed as reduction in bacterial growth incubated for 16 to 18 hrs by broth microdilution method; type: functional; conditions: time 16-18 hrs
Enterococcus [19] = assay: Antibacterial activity against vancomycin sensitive/methicillin resistant Enterococcus NR 31886 assessed as reduction in bacterial growth incubated for 16 to 18 hrs by broth microdilution method; type: functional; conditions: time 16-18 hrs
Enterococcus [20] = assay: Antibacterial activity against vancomycin sensitive/methicillin resistant Enterococcus NR 31888 assessed as reduction in bacterial growth incubated for 16 to 18 hrs by broth microdilution method; type: functional; conditions: time 16-18 hrs
Klebsiella pneumoniae = assay: Antibacterial activity against Klebsiella pneumoniae BAA 1705 assessed as reduction in bacterial growth incubated for 16 to 18 hrs by broth microdilution method; type: functional; conditions: time 16-18 hrs
Staphylococcus aureus [21] = assay: Antibacterial activity against Staphylococcus aureus ATCC 29213 infected in mouse J774A.1 cells assessed as reduction in intracellular bacterial cells at 5 times MIC incubated for 24 hrs followed by re-plating on TSA plate and measured after 18 to 24 hrs; type: functional
Staphylococcus aureus [22] = assay: Antibacterial activity against methicillin/levoflaxacin/meropenem/erythromycin resistant Staphylococcus aureus NRS 192 assessed as reduction in bacterial growth incubated for 16 to 18 hrs by broth microdilution method; type: functional; conditions: time 16-18 hrs
Staphylococcus aureus [23] = assay: Antibacterial activity against methicillin/meropenem/levoflaxacin resistant Staphylococcus aureus NRS 198 assessed as reduction in bacterial growth incubated for 16 to 18 hrs by broth microdilution method; type: functional; conditions: time 16-18 hrs
Staphylococcus aureus [24] = assay: Antibacterial activity against Staphylococcus aureus ATCC 29213 infected in Swiss mouse skin infection model assessed as reduction in skin bacterial load at 1 % dose administered twice daily for 4 days; type: functional; conditions: time 4 day
Enterococcus [25] = assay: Antibacterial activity against vancomycin sensitive/methicillin resistant Enterococcus NR 31884 assessed as reduction in bacterial growth incubated for 16 to 18 hrs by broth microdilution method; type: functional; conditions: time 16-18 hrs
Staphylococcus aureus [26] = assay: Post antibiotic effect against Staphylococcus aureus ATCC 29213 at 1 time MIC incubated for 1 hr followed by replacement with drug free medium and measured every 1 hr (reference value: 0 hr); type: functional
Staphylococcus aureus [27] = assay: Bactericidal activity against Staphylococcus aureus ATCC 29213 assessed as reduction in log10 CFU at 2.5 times MIC after 5 mins by time kill assay; type: functional
Staphylococcus aureus [28] = assay: Bactericidal activity against Staphylococcus aureus ATCC 29213 assessed as increase in extracellular ATP level after 1 hr by ATP bioluminescence assay; type: functional, organism-based; conditions: DDE = dose-dependent effect
[29] = Selectivity index, ratio of CC50 for African green monkey Vero cells to MIC for Staphylococcus aureus ATCC 29213; type: toxicity; conditions: read-out: Selectivity Index
Enterococcus [30] = assay: Antibacterial activity against vancomycin/methicillin/levoflaxacin/minocycline resistant Enterococcus NR 31909 assessed as reduction in bacterial growth incubated for 16 to 18 hrs by broth microdilution method; type: functional; conditions: time 16-18 hrs
Staphylococcus aureus [31] = assay: Synergistic antibacterial activity against Staphylococcus aureus ATCC 29213 assessed as reduction in bacterial growth incubated for 24 hrs in presence of minocycline by checkerboard method; type: functional
Staphylococcus aureus [32] = assay: Synergistic antibacterial activity against Staphylococcus aureus ATCC 29213 assessed as reduction in bacterial growth incubated for 24 hrs in presence of meropenem by checkerboard method; type: functional
Staphylococcus aureus [33] = assay: Synergistic antibacterial activity against Staphylococcus aureus ATCC 29213 assessed as fractional inhibitory concentration incubated for 24 hrs in presence of ceftazidime by checkerboard method; type: functional
Staphylococcus aureus [34] = assay: Antibacterial activity against methicillin/levoflaxacin/vancomycin/meropenem/gentamycin/spectinomycin/teicoplanin resistant Staphylococcus aureus VRS 4 assessed as reduction in bacterial growth incubated for 16 to 18 hrs by broth microdilution method; type: functional; conditions: time 16-18 hrs

`COc1cc2oc(-c3ccc(O)cc3O)c(CC=C(C)C)c(=O)c2c(O)c1/C=C/C(C)C` [ARTOCARPIN] showed a PAE (Staphylococcus aureus [1]) of 22 h, an FIC (Staphylococcus aureus [2]) of 0.5 and an FIC (Staphylococcus aureus [3]) of 0.015. For the same compound, the MIC (Staphylococcus aureus [4]) was 4 µg/mL (≈ 9.16 µM), the MIC (Enterococcus [5]) was 2 µg/mL (≈ 4.58 µM) and the Activity (Staphylococcus aureus [6]) was “Active”. The MIC (Staphylococcus aureus [7]) was 4 µg/mL (≈ 9.16 µM), the MIC (Staphylococcus aureus [8]) was 4 µg/mL (≈ 9.16 µM) and the MIC (Acinetobacter baumannii) was greater than 128 µg/mL. It also gave an MIC (Escherichia coli) of 8 µg/mL, an MIC (Staphylococcus aureus [9]) of 1 µg/mL and an Activity (Staphylococcus aureus [10]) of 4.8 log10CFU/ml. It also gave an FIC (Staphylococcus aureus [11]) of 0.5, an FIC (Staphylococcus aureus [12]) of 0.5 and an MIC (Staphylococcus aureus [13]) of 4 µg/mL (≈ 9.16 µM). The MIC (Enterococcus [14]) was 2 µg/mL (≈ 4.58 µM), the Activity (Staphylococcus aureus [15]) was 100% and the MIC (Staphylococcus aureus [16]) was 4 µg/mL (≈ 9.16 µM). It also gave an Activity (Staphylococcus aureus [17]) of 34%, an MIC (Staphylococcus aureus [18]) of 4 µg/mL (≈ 9.16 µM) and an MIC (Enterococcus [19]) of 2 µg/mL (≈ 4.58 µM). The MIC (Enterococcus [20]) was 2 µg/mL (≈ 4.58 µM), the MIC (Klebsiella pneumoniae) was greater than 128 µg/mL and the Activity (Staphylococcus aureus [21]) was 3.25 log10CFU/ml. The MIC (Staphylococcus aureus [22]) was 4 µg/mL (≈ 9.16 µM), the MIC (Staphylococcus aureus [23]) was 2 µg/mL (≈ 4.58 µM) and the Activity (Staphylococcus aureus [24]) was 1 log10CFU/g. The MIC (Enterococcus [25]) was 2 µg/mL (≈ 4.58 µM), the PAE (Staphylococcus aureus [26]) was 3 h and the Activity (Staphylococcus aureus [27]) was 1.4 log10CFU/ml. For the same compound, the Activity (Staphylococcus aureus [28]) was “Dde”, the selectivity ratio [29] was 40 and the MIC (Enterococcus [30]) was 1 µg/mL (≈ 2.29 µM). It also gave an MIC (Staphylococcus aureus [31]) of 1 µg/mL, an MIC (Staphylococcus aureus [32]) of 2 µg/mL and an FIC (Staphylococcus aureus [33]) of 0.5. It also gave an MIC (Staphylococcus aureus [34]) of 4 µg/mL (≈ 9.16 µM).
